{
  "source": "patent US20230055705A1",
  "about": "“SUBSTITUTED THIOPHENE CARBOXAMIDES AND DERIVATIVES THEREOF” (Bayer Aktiengesellschaft, priority 2019, published 2023)",
  "data": [
    {"system": "Colletotrichum lindemuthianum", "assay": "In vivo preventive test on Colletotrichum lindemuthianum (Antrachnose on bean)", "conditions": "144 h, 31 ppm of active ingredient, inoculation 72 h after spraying, evaluated 6 days after inoculation, read-out: efficacy", "experimental": "(§1) The tested active ingredients were prepared by homogenization in a mixture of acetone/Dimethyl sulfoxide/Tween®, and then diluted with water to obtain the desired active material concentration. The young plants of bean were treated by spraying the active ingredient prepared as described above. Control plants were treated only with an aqueous solution of acetone/Dimethyl sulfoxide/Tween®.\n(§2) After 72 hours, the plants were contaminated by spraying the leaves with an aqueous suspension of Colletotrichum lindemuthianum spores. The contaminated bean plants were incubated for 24 hours at 20° C. and at 100% relative humidity and then for 5 days at 20° C. and at 90% relative humidity. The test was evaluated 6 days after the inoculation. 0% means an efficacy which corresponds to that of the control plants while an efficacy of 100% means that no disease was observed.\nCompound CMP1 was tested in an in vivo preventive test on Colletotrichum lindemuthianum (Antrachnose on bean) in the same conditions as described in Example F.", "units": {"pest or weed control at 31 ppm": "%"}, "values": [
      {"compound": "C[C@H](NC(=O)c1sc(Cl)c(Cl)c1Cl)C(=O)O", "note": "[CMP1, reference compound]", "pest or weed control at 31 ppm": "< 20"}
    ]},
    {"system": "Peronospora parasitica", "assay": "In vivo preventive test on Peronospora parasitica (Crucifer downy mildew)", "conditions": "500 ppm of active ingredient, cabbage, evaluated 5 days after inoculation", "experimental": "as §1, with “cabbage” for “bean”\n(§3) After 72 hours, the plants were contaminated by spraying the leaves with an aqueous suspension of Peronospora parasitica spores. The contaminated cabbage plants were incubated for 5 days at 20° C. and at 100% relative humidity.\n(§4) The test was evaluated 5 days after the inoculation. 0% means an efficacy which corresponds to that of the control plants while an efficacy of 100% means that no disease was observed.\n(§5) Compounds CMP2 and CMP3 were tested in an in vivo preventive test on Peronospora parasitica (Crucifer downy mildew) in the same conditions as described in Example G.", "units": {"efficacy": "%"}, "values": [
      {"compound": "CCOC(=O)[C@H](C)NC(=S)c1sc(Cl)c(Cl)c1Cl", "note": "[I.118]", "efficacy": 70}
    ]},
    {"system": "Peronospora parasitica", "assay": "In vivo preventive test on Peronospora parasitica (Crucifer downy mildew)", "conditions": "Hyaloperonospora parasitica, in Brassica oleracea, 120 h, 500 ppm of active ingredient, cabbage, evaluated 5 days after inoculation, read-out: efficacy", "experimental": "as §1, with “cabbage” for “bean”\nas §3, §4, §5", "units": {"pest or weed control at 500 ppm": "%"}, "values": [
      {"compound": "CCOC(=O)C(C)N(C(=O)c1sc(Cl)c(Cl)c1Cl)C1CC1", "note": "(centres unmarked) [I.110]", "pest or weed control at 500 ppm": "70 to 79"}
    ]},
    {"system": "Xanthomonas campestris pv. campestris", "assay": "In vivo preventive test on Xanthomonas campestris pv. campestris (black rot on cabbage)", "conditions": "31 ppm of active ingredient, evaluated 8 or 10 days after inoculation, read-out: efficacy", "experimental": "(§6) The tested active ingredients were prepared by homogenization in a mixture of acetone/Dimethyl sulfoxide/Tween®, and then diluted with water to obtain the desired active material concentration.\n(§7) The young plants of cabbage were treated by spraying the active ingredient prepared as described above. Control plants were treated only with an aqueous solution of acetone/Dimethyl sulfoxide/Tween®.\n(§8) After 72 hours, the plants were contaminated by spraying the leaves with an aqueous bacteria suspension of Xanthomonas campestris pv. campestris. The contaminated cabbage plants were incubated for 8 or 10 days at 27° C. at 95% relative humidity.\n(§9) The test was evaluated 8 or 10 days after the inoculation. 0% means an efficacy which corresponds to that of the control plants while an efficacy of 100% means that no disease was observed. […]\n(§10) Compounds CMP1, CMP2, CMP3 and CMP4 were tested in an in vivo preventive test on Xanthomonas campestris pv. campestris (black rot on cabbage) in the same conditions as described in Example H.", "units": {"pest or weed control at 31 ppm": "%"}, "values": [
      {"compound": "C[C@H](NC(=O)c1sc(Cl)c(Cl)c1Cl)C(=O)O", "note": "[CMP1, reference compound]", "pest or weed control at 31 ppm": "< 40"},
      {"compound": "CCOC(=O)C(C)N(C(=O)c1sc(Cl)c(Cl)c1Cl)C1CC1", "note": "(centres unmarked) [I.110]", "pest or weed control at 31 ppm": "70 to 79"}
    ]},
    {"system": "Xanthomonas campestris pv. campestris", "assay": "In vivo preventive test on Xanthomonas campestris pv. campestris (black rot on cabbage)", "conditions": "125 ppm of active ingredient, evaluated 8 or 10 days after inoculation, read-out: efficacy", "experimental": "as §6, §7, §8, §9, §10", "units": {"pest or weed control at 125 ppm": "%"}, "values": [
      {"compound": "COC(=O)[C@@H](NC(=O)c1sc(Cl)c(Cl)c1Cl)C(C)C", "note": "[CMP4, reference compound]", "pest or weed control at 125 ppm": 0},
      {"compound": "CNC(=O)[C@@H](NC(=O)c1sc(Cl)c(Cl)c1Cl)C(C)C", "note": "[I.096]", "pest or weed control at 125 ppm": "80 to 89"},
      {"compound": "CCOC(=O)C(C)N(C(=O)c1sc(Cl)c(Cl)c1Cl)C1CC1", "note": "(centres unmarked) [I.110]", "pest or weed control at 125 ppm": "70 to 79"}
    ]},
    {"system": "Uromyces appendiculatus", "assay": "In vivo preventive test on Uromyces appendiculatus (bean rust)", "conditions": "240 h, 8 ppm, evaluated 10 days after inoculation, read-out: efficacy", "experimental": "as §1\nas §2, with “Uromyces appendiculatus” for “Colletotrichum lindemuthianum”, “9” for “5”, “70-80%” for “90%”, “10” for “6”\n(§11) Compounds CMP5 and CMP6 were tested in an in vivo preventive test on Uromyces appendiculatus (bean rust) in the same conditions as described in Example I.", "units": {"pest or weed control at 8 ppm": "%"}, "values": [
      {"compound": "CC(C)[C@H](NC(=O)c1sc(Cl)c(Cl)c1Cl)C(=O)O", "note": "[CMP5, reference compound]", "pest or weed control at 8 ppm": "< 20"}
    ]},
    {"system": "Uromyces appendiculatus", "assay": "In vivo preventive test on Uromyces appendiculatus (bean rust)", "conditions": "240 h, 125 ppm of active ingredient, evaluated 10 days after inoculation, read-out: efficacy", "experimental": "as §1\nas §2, with “Uromyces appendiculatus” for “Colletotrichum lindemuthianum”, “9” for “5”, “70-80%” for “90%”, “10” for “6”\nas §11", "units": {"pest or weed control at 125 ppm": "%"}, "values": [
      {"compound": "CCOC(=O)C(C)N(C(=O)c1sc(Cl)c(Cl)c1Cl)C1CC1", "note": "(centres unmarked) [I.110]", "pest or weed control at 125 ppm": "70 to 79"}
    ]},
    {"system": "Uromyces appendiculatus", "assay": "In vivo preventive test on Uromyces appendiculatus (bean rust)", "conditions": "240 h, 500 ppm of active ingredient, evaluated 10 days after inoculation, read-out: efficacy", "experimental": "as §1\nas §2, with “Uromyces appendiculatus” for “Colletotrichum lindemuthianum”, “9” for “5”, “70-80%” for “90%”, “10” for “6”\nas §11", "units": {"pest or weed control at 500 ppm": "%"}, "values": [
      {"compound": "CCOC(=O)[C@@H](NC(=O)c1sc(Cl)c(Cl)c1Cl)C(C)C", "note": "[CMP6, reference compound]", "pest or weed control at 500 ppm": "< 40"},
      {"compound": "CCOC(=O)C(C)N(C(=O)c1sc(Cl)c(Cl)c1Cl)C1CC1", "note": "(centres unmarked) [I.110]", "pest or weed control at 500 ppm": "90 to 100"}
    ]},
    {"system": "Pseudomonas syringae pv. tomato", "assay": "In vivo preventive test on Pseudomonas syringae pv. tomato (bacterial speck on tomato)", "conditions": "31 ppm of active ingredient, evaluated 5 or 6 days after inoculation, read-out: efficacy", "experimental": "as §1, with “tomato” for “bean”\n(§12) After 72 hours, the plants were contaminated by spraying the leaves with an aqueous bacteria suspension of Pseudomonas syringae pv. tomato. The contaminated tomato plants were incubated for 4 days in saturated atmosphere at 22° C. day/20° C. night—70% HR and then for 1 or 2 days at 22° C. day/20° C. night at 70-80% relative humidity.\n(§13) The test was evaluated 5 or 6 days after the inoculation. 0% means an efficacy which corresponds to that of the control plants while an efficacy of 100% means that no disease was observed.\n(§14) Compounds CMP1 and CMP4 were tested in an in vivo preventive test on Pseudomonas syringae pv. tomato (bacterial speck on tomato) in the same conditions as described in Example J.", "units": {"pest or weed control at 31 ppm": "%"}, "values": [
      {"compound": "COC(=O)[C@@H](NC(=O)c1sc(Cl)c(Cl)c1Cl)C(C)C", "note": "[CMP4, reference compound]", "pest or weed control at 31 ppm": 0}
    ]},
    {"system": "Pseudomonas syringae pv. tomato", "assay": "In vivo preventive test on Pseudomonas syringae pv. tomato (bacterial speck on tomato)", "conditions": "500 ppm of active ingredient, evaluated 5 or 6 days after inoculation, read-out: efficacy", "experimental": "as §1, with “tomato” for “bean”\nas §12, §13, §14", "units": {"pest or weed control at 500 ppm": "%"}, "values": [
      {"compound": "C[C@H](NC(=O)c1sc(Cl)c(Cl)c1Cl)C(=O)O", "note": "[CMP1, reference compound]", "pest or weed control at 500 ppm": "< 20"}
    ]},
    {"system": "not listed separately", "assay": "LogP by HPLC on reversed phase columns (EEC directive 79/831 Annex V.A8)", "assay_type": "physicochemical", "conditions": "not given", "experimental": "(§15) In the above tables, measurement of LogP values was performed according to EEC directive 79/831 Annex V.A8 by HPLC (High Performance Liquid Chromatography) on reversed phase columns with the following methods: • ^[a]\n(§16) Calibration was done with straight-chain alkan2-ones (with 3 to 16 carbon atoms) with known LogP values (measurement of LogP values using retention times with linear interpolation between successive alkanones). Lambda-max-values were determined using UV-spectra from 200 nm to 400 nm and the peak values of the chromatographic signals.", "values": [
      {"compound": "CCOC(=O)[C@H](C)NC(=S)c1sc(Cl)c(Cl)c1Cl", "note": "[I.118]", "LogP": "5.21^[a]"}
    ]},
    {"system": "not listed separately", "assay": "LogP by HPLC on reversed phase columns (EEC directive 79/831 Annex V.A8)", "assay_type": "physicochemical", "conditions": "reversed phase HPLC columns, method [a]: LC-UV, in an acidic range, with 0.1% formic acid in water and acetonitrile as eluent (linear gradient from 10% to 95% acetonitrile)", "experimental": "as §15, §16", "values": [
      {"compound": "CNC(=O)[C@@H](NC(=O)c1sc(Cl)c(Cl)c1Cl)C(C)C", "note": "[I.096]", "chromatographic logP": 2.97},
      {"compound": "CCOC(=O)C(C)N(C(=O)c1sc(Cl)c(Cl)c1Cl)C1CC1", "note": "(centres unmarked) [I.110]", "chromatographic logP": 4.23}
    ]}
  ]
}
